Values of other authors as cited in patent USRE43580E1, “Nasal calcitonin formulations” (Unigene Laboratories, Inc., priority 2000, dated 2012).

Tests used:
[1] = tested on: mucocilary transport velocity; conditions: ex vivo frog palate
nasal mucosa = conditions: in vivo
[2] = preservative in the nasal formulation
rhinitis medicamentosa = conditions: healthy volunteers, decongestant nasal spray containing the preservative
[3] = tested on: respiratory mucosal tissue; conditions: exposed in vitro

Question: Which Mucocilary transport velocity [1] does the source give for benzalkonium chloride here?
Answer: significant slowing

Question: And the “Effect on nasal mucosa” value (nasal mucosa)?
Answer: adverse effect on nasal mucosa

Question: What about the “Absorption of salmon calcitonin” value [2] of the same substance?
Answer: enhance the absorption of salmon calcitonin

Question: And the Rhinitis medicamentosa (rhinitis medicamentosa)?
Answer: aggravate rhintis rhinitis medicamentosa

Question: What about the “Morphology of respiratory mucosal tissue” value [3] of the same substance?
Answer: severe morphological alterations
